This passage reports RM0 and Ki results from article PMC6222450, “Computer-Aided Studies for Novel Arylhydantoin 1,3,5-Triazine Derivatives as 5-HT6 Serotonin Receptor Ligands with Antidepressive-Like, Anxiolytic and Antiobesity Action In Vivo” (Molecules : A Journal of Synthetic Chemistry and Natural …, 2018).

By Ki is commonly meant a measure of affinity in units of concentration, obtained from inhibition or displacement.

One data set can be described thus: Lipophilicity by RP-TLC. Type of data set: physicochemical. The conditions noted are these: RP-18 TLC, water/methanol, extrapolated to 100% water. How it is done:
For comparison, the active arylmethyl-triazine compounds previously found (1–3) were also examined. Stationary phase RP-18 and mixtures of water/methanol […] as a mobile phase were employed. RM values were calculated from the RF data obtained. […] The regression coefficients (r^2) determined for all compounds were higher than 0.95. On the basis of the linear relationship between RM values and the volume fraction of methanol, values of RM0 in the systems analyzed corresponding to 100% of water were obtained by extrapolation. RM0 values received for the compounds tested ranged from 3.14 to 4.49 (Figure 6).
The mobile phases were prepared by mixing the respective amounts of water and organic modifier (methanol) in a range from 40 to 90% (v/v) in 5% increments. TLC was performed on Silica gel 60RP-18 F254 plates (7 × 10 cm) plates (Merck, Darmstadt, Germany). Methanol was used to prepare the solutions of the substances. Solutions (10 µL) of the analyzed compounds were applied to the plates as 5 mm bands, 10 mm apart and 10 mm from the lower edge and sides of the plates, by using Linomat V applicator (Camag, Basel, Switzerland). The vertical chamber (Sigma–Aldrich, St. Louis, MI, USA), 20 × 10 × 18 cm in size, was saturated with mobile phase for 20 min. Development was carried out over 9 cm from the starting line at a temperature of 20 °C. Next, the plates were dried at room temperature, and the spots were observed under ultraviolet light at 254 nm and/or 366 nm (UV lamp, Camag, Basel, Switzerland). In each case, sharp and symmetric spots without a tendency for tailing were obtained. Each experiment was run in triplicate and mean RF (retardation factor) values were calculated.
Starting from the RF values, the RM parameters were computed as described in the formula:RM = log(1/RF − 1)
The linear correlations between the RM values of the substances and the concentration of methanol in mobile phases were calculated for each compound with the Soczewiński-Wachtmeister equation [22]:RM = RM0 + aC where C is the concentration of the organic modifier (in %) in the mobile phase, a is the slope, and RM0 is the […].

The target of the next data set is T1, human serotonin 5-HT6R (Homo sapiens, UniProt P50406).
T1 construct: expressed in transfected cells; host or cells: HEK-293
The data set can be described thus: Radioligand binding assay, 5-HT6R, [3H]-LSD displacement. The conditions noted are these: human receptor stably expressed in HEK-293 cells; mean of at least two independent experiments; read-out: Ki 5-HT6 [3H]-LSD. Here is the method: Five selective radioligands were employed (Table 1).
Radioligand binding assays were used to determine the affinity of the synthesized compounds for human serotonin 5-HT6R, which were stably expressed in HEK-293 cells. […] Each compound was tested in triplicate at 7 to 8 different concentrations (10^−11 to 10^−4 M). The inhibition constants (Ki) were calculated using the Cheng–Prusoff equation [40], and the results are expressed as the mean of at least two independent experiments.

In the next data set the target is T2, dopaminergic D2LR (Homo sapiens, UniProt P14416).
T2 construct: expressed in transfected cells; host or cells: HEK-293
As to the kind of experiment: Radioligand binding assay, D2LR, [3H]-Raclopride. The conditions noted are these: human D2L receptor stably expressed in HEK-293 cells; read-out: Ki D2 [3H]-Raclopride.

In the next data set the target is T3, 5-HT7bR (Homo sapiens, UniProt P34969).
T3 construct: expressed in transfected cells; host or cells: HEK-293
As to the kind of experiment: Radioligand binding assay, 5-HT7bR, [3H]-5-CT. The conditions noted are these: human 5-HT7b receptor stably expressed in HEK-293 cells; read-out: Ki 5-HT7 [3H]-5-CT.

The target in the next data set is T4, 5-HT1A (Homo sapiens, UniProt P08908).
T4 construct: expressed in transfected cells; host or cells: HEK-293
T4 sequence (P08908 1-422): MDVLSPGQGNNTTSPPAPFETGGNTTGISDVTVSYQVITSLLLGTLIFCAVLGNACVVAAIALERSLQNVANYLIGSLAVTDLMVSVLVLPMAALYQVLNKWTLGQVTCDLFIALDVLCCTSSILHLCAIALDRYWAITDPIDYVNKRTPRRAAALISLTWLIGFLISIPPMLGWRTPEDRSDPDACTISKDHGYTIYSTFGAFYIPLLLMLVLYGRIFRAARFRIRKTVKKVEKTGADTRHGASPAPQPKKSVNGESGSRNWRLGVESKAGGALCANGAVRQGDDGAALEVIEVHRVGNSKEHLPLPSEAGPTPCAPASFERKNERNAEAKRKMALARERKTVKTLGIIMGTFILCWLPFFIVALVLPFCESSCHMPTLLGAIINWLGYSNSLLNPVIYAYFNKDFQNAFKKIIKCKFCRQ
The data set can be described thus: Radioligand binding assay, 5-HT1A, [3H]-8-OH-DPAT. The conditions noted are these: human receptor stably expressed in HEK-293 cells.

The target of the next data set is T5, 5-HT2A (Homo sapiens, UniProt P28223).
T5 construct: expressed in transfected cells; host or cells: HEK-293
The data set can be described thus: Radioligand binding assay, 5-HT2A, [3H]-Ketanserin. The conditions noted are these: human receptor stably expressed in HEK-293 cells.

T2 sequence (P14416 whole entry): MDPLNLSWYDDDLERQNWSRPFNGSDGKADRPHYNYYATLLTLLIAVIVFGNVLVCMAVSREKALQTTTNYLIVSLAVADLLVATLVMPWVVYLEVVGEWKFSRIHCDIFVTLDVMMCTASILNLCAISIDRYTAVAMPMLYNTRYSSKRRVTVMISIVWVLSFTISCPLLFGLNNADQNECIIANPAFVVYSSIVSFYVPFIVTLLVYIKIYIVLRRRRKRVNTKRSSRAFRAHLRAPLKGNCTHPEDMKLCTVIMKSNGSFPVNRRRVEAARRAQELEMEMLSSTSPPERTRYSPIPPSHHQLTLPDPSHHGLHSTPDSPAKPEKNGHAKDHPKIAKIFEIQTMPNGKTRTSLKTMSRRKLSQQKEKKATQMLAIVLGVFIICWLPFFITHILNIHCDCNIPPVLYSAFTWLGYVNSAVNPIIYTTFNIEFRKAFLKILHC
T5 sequence (P28223 whole entry): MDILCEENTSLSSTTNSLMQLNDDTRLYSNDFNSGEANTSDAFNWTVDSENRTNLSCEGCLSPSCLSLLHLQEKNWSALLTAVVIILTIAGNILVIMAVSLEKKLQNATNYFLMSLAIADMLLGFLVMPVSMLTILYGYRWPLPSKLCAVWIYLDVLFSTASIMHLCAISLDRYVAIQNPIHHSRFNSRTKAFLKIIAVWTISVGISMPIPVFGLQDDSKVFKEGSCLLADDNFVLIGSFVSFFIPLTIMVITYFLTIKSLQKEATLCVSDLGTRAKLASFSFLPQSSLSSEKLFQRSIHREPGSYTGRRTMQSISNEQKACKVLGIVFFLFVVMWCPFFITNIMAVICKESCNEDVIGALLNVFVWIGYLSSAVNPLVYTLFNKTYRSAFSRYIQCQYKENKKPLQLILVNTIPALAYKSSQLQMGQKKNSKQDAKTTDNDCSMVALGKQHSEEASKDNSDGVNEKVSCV
T1 sequence (P50406 whole entry): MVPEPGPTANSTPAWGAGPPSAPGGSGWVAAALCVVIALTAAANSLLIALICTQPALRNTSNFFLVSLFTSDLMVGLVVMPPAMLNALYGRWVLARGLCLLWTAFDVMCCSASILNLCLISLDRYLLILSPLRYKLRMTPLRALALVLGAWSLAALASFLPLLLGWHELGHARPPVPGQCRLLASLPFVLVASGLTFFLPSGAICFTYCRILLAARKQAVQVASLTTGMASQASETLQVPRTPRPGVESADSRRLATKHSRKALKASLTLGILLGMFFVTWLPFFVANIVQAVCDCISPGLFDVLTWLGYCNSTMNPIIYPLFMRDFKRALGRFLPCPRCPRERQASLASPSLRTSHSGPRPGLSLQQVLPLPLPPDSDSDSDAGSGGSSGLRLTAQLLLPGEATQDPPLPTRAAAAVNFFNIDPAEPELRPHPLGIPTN
T3 sequence (P34969 1-432 limits assumed): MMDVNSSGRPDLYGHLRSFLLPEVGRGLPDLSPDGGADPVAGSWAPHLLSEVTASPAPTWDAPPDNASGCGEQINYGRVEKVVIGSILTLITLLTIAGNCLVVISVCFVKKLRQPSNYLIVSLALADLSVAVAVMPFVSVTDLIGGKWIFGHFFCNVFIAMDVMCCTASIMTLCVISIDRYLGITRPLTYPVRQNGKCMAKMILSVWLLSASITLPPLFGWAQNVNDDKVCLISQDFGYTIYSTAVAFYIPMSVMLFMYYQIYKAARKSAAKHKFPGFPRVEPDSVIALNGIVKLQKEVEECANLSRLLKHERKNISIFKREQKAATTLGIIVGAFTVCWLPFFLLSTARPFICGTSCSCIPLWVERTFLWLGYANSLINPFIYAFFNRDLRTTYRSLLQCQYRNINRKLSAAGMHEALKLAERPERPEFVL

For the compound `CN1CCN(c2nc(N)nc(Cc3cccc4ccccc34)n2)CC1` [Compound 1, reference compound], in “Lipophilicity by RP-TLC”, the RM0 is on record as 3.14.

Turning to `CN1CCN(c2nc(N)nc(Cc3cccc(Cl)c3)n2)CC1` [Compound 2, reference compound], in “Lipophilicity by RP-TLC”, the RM0 is 3.25.

As for `Cc1cccc(Cc2nc(N)nc(N3CCN(C)CC3)n2)c1` [Compound 3, reference compound], in the data set “Lipophilicity by RP-TLC”, the RM0 is recorded as 3.58.

Regarding `CN1CCN(c2nc(N)nc(CN3C(=O)NC(C)(C)C3=O)n2)CC1` [Compound 4], the Ki amounted to 0.427 µM on human serotonin 5-HT6R, 22.3 µM at dopaminergic D2LR and 35.8 µM on 5-HT7bR.

Consider `CN1CCN(c2nc(N)nc(CN3C(=O)N(Cc4ccccc4)C(C)(C)C3=O)n2)CC1` [Compound 9, 3-((4-Amino-6-(4-methylpiperazin-1-yl)-1,3,5-triazin-2-yl)methyl)-1-benzyl-5,5-dimethylimidazolidine-2,4-dione], for which the Ki turned out to be 0.592 µM on human serotonin 5-HT6R; 8.78 µM on dopaminergic D2LR; 42.6 µM on 5-HT1A; 1.6 µM at 5-HT2A; 0.35 µM at 5-HT7bR.

`CN1CCN(c2nc(N)nc(CN3C(=O)N(Cc4cccc(Cl)c4)C(C)(C)C3=O)n2)CC1` [Compound 10, 1-(3-Chlorobenzyl)-3-((4-amino-6-(4-methylpiperazin-1-yl)-1,3,5-triazin-2-yl)methyl)-5,5-dimethylimidazolidine-2,4-dione]: the inhibition constant Ki on human serotonin 5-HT6R is 0.271 µM; on dopaminergic D2LR, 4.63 µM; at 5-HT1A, 13.6 µM; at 5-HT2A, 0.328 µM; at 5-HT7bR, 0.159 µM.

Consider `CN1CCN(c2nc(N)nc(CN3C(=O)N(Cc4cc(Cl)ccc4Cl)C(C)(C)C3=O)n2)CC1` [Compound 11, 1-(2,5-Dichlorobenzyl)-3-((4-amino-6-(4-methylpiperazin-1-yl)-1,3,5-triazin-2-yl)methyl)-5,5-dimethylimidazolidine-2,4-dione], for which the Ki at human serotonin 5-HT6R was found to be 0.597 µM; at dopaminergic D2LR it was 2.87 µM; at 5-HT1A it was 4.16 µM; at 5-HT2A it was 0.809 µM; at 5-HT7bR, 0.279 µM.

Turning to `CN1CCN(c2nc(N)nc(CN3C(=O)N(Cc4ccc(Cl)cc4Cl)C(C)(C)C3=O)n2)CC1` [Compound 12, 1-(2,4-Dichlorobenzyl)-3-((4-amino-6-(4-methylpiperazin-1-yl)-1,3,5-triazin-2-yl)methyl)-5,5-dimethylimidazolidine-2,4-dione], the Ki came to 0.205 µM at human serotonin 5-HT6R; 0.681 µM at dopaminergic D2LR; 7.69 µM at 5-HT1A; 3.59 µM at 5-HT2A; 1.12 µM on 5-HT7bR.

Turning to `CN1CCN(c2nc(N)nc(CN3C(=O)N(Cc4ccc(F)cc4)C(C)(C)C3=O)n2)CC1` [Compound 13, 1-(4-Fluorobenzyl)-3-((4-amino-6-(4-methylpiperazin-1-yl)-1,3,5-triazin-2-yl)methyl)-5,5-dimethylimidazolidine-2,4-dione], the Ki was 0.663 µM at human serotonin 5-HT6R; 6.56 µM at dopaminergic D2LR; 48.4 µM at 5-HT1A; 3.55 µM at 5-HT2A; 0.953 µM on 5-HT7bR.

Take `CN1CCN(c2nc(N)nc(CN3C(=O)N(Cc4cccc(F)c4)C(C)(C)C3=O)n2)CC1` [Compound 14, 1-(3-Fluorobenzyl)-3-((4-amino-6-(4-methylpiperazin-1-yl)-1,3,5-triazin-2-yl)methyl)-5,5-dimethylimidazolidine-2,4-dione]: the Ki at human serotonin 5-HT6R amounted to 0.447 µM; at dopaminergic D2LR, 6.58 µM; on 5-HT1A, 37.1 µM; at 5-HT2A, 0.239 µM; on 5-HT7bR, 0.088 µM.

Take `CN1CCN(c2nc(N)nc(CN3C(=O)N(Cc4cccc(Br)c4)C(C)(C)C3=O)n2)CC1` [Compound 15, 1-(3-Bromobenzyl)-3-((4-amino-6-(4-methylpiperazin-1-yl)-1,3,5-triazin-2-yl)methyl)-5,5-dimethylimidazolidine-2,4-dione]: the Ki at human serotonin 5-HT6R came to 0.57 µM; at dopaminergic D2LR, 6.68 µM; on 5-HT1A it was 12.9 µM; on 5-HT2A, 1.33 µM; at 5-HT7bR, 0.571 µM.

`COc1cccc(CN2C(=O)N(Cc3nc(N)nc(N4CCN(C)CC4)n3)C(=O)C2(C)C)c1` [Compound 16, 1-(3-Methoxybenzyl)-3-((4-amino-6-(4-methylpiperazin-1-yl)-1,3,5-triazin-2-yl)methyl)-5,5-dimethylimidazolidine-2,4-dione]: the Ki turned out to be 0.692 µM on human serotonin 5-HT6R; 15.5 µM at dopaminergic D2LR; 23.9 µM on 5-HT1A; 2.04 µM at 5-HT2A; 3.59 µM on 5-HT7bR.

In the case of `Cc1cccc(CN2C(=O)N(Cc3nc(N)nc(N4CCN(C)CC4)n3)C(=O)C2(C)C)c1` [Compound 17, 1-(3-Methylbenzyl)-3-((4-amino-6-(4-methylpiperazin-1-yl)-1,3,5-triazin-2-yl)methyl)-5,5-dimethylimidazolidine-2,4-dione], the Ki on human serotonin 5-HT6R stood at 0.895 µM; at dopaminergic D2LR it was 5.21 µM; at 5-HT1A, 17 µM; at 5-HT2A, 0.817 µM; at 5-HT7bR, 0.42 µM.

In the case of `CN1CCN(c2nc(N)nc(CN3C(=O)NC(C)(c4ccccc4)C3=O)n2)CC1` (stereo not shown) [Compound 19, 3-((4-Amino-6-(4-methylpiperazin-1-yl)-1,3,5-triazin-2-yl)methyl)-5-methyl-5-phenylimidazolidine-2,4-dione], the Ki on human serotonin 5-HT6R was found to be 0.726 µM; at dopaminergic D2LR it was 41 µM; at 5-HT1A it was 31.6 µM; on 5-HT2A, 12.1 µM; at 5-HT7bR it was 1.1 µM.

In the case of `CN1CCN(c2nc(N)nc(CN3C(=O)NC(C)(c4cccc(Cl)c4)C3=O)n2)CC1` (stereo not shown) [Compound 20, 3-((4-Amino-6-(4-methylpiperazin-1-yl)-1,3,5-triazin-2-yl)methyl)-5-(3-chlorophenyl)-5-methylimidazolidine-2,4-dione], the Ki on human serotonin 5-HT6R turned out to be 0.418 µM; at dopaminergic D2LR, 16.8 µM; on 5-HT1A it was 4.1 µM; on 5-HT2A, 7.4 µM; at 5-HT7bR, 0.791 µM.

As to `CN1CCN(c2nc(N)nc(CN3C(=O)NC(C)(c4cc(Cl)ccc4Cl)C3=O)n2)CC1` (stereo not shown) [Compound 21, 3-((4-Amino-6-(4-methylpiperazin-1-yl)-1,3,5-triazin-2-yl)methyl)-5-(2,5-dichlorophenyl)-5-methylimidazolidine-2,4-dione], the Ki at human serotonin 5-HT6R is 0.403 µM; at dopaminergic D2LR, 11.5 µM; on 5-HT1A, 26.2 µM; at 5-HT2A, 11.1 µM; at 5-HT7bR, 1.56 µM.

Regarding `CN1CCN(c2nc(N)nc(CN3C(=O)NC(C)(c4ccc(Cl)cc4Cl)C3=O)n2)CC1` (stereo not shown) [Compound 22, 3-((4-Amino-6-(4-methylpiperazin-1-yl)-1,3,5-triazin-2-yl)methyl)-5-(2,4-dichlorophenyl)-5-methylimidazolidine-2,4-dione], the Ki at human serotonin 5-HT6R amounted to 0.457 µM; at dopaminergic D2LR, 15.1 µM; at 5-HT1A, 14 µM; at 5-HT2A it was 10.8 µM; at 5-HT7bR, 10.1 µM.

For `Cc1ccc(C2(C)NC(=O)N(Cc3nc(N)nc(N4CCN(C)CC4)n3)C2=O)cc1` (stereo not shown) [Compound 24, 3-((4-Amino-6-(4-methylpiperazin-1-yl)-1,3,5-triazin-2-yl)methyl)-5-(4-methylphenyl)-5-methylimidazolidine-2,4-dione], the Ki at human serotonin 5-HT6R was 0.667 µM; on dopaminergic D2LR, 23.3 µM; on 5-HT1A it was 22.3 µM; at 5-HT2A, 24.4 µM; at 5-HT7bR, 0.564 µM.
